Assay results as given in US8440212B2, “Compositions for treating water systems” (Arch Chemicals, Inc., priority 2009, dated 2013).
Read-outs that look alike come from different tables or passages of the source.

How the values were obtained:
[1] = tested on: Chlorella pyrenoidosa, Pleurochloris pyrenoidosa and Phormidium sp.; settings: FIG. 4
Experimental: This study was conducted in test pools without bathers. The water was initially balanced and proper water balance was maintained throughout the study. Each pool was inoculated weekly with mixed bacterial, fungal and algal cultures. The algae inoculations were prepared using the methodology below.
Algal cultures were maintained in 5 liter carboys at 22° C. under fluorescent light with a 12 hour on/off cycle. Air is continuously bubbled through the medium. Stock cultures of Chlorella pyrenoidosa and Pleurochloris pyrenoidosa are maintained in Kratz & Meyers medium and Phormidium sp., a filamentous blue-green alga, is maintained in BG-11.
150 milliliters of a combined inoculum containing equal amounts of each strain is added weekly per 10,000 gallons of water. Typically the cultures contain approximately 2×10^7 cells per milliliter; therefore approximately 2×10^9 cells are added per pool each week. However, if time allows, determine the actual number of algae in each sample by heamocytometry, using a Neubauer heamocytometer. Each pool was chemically treated using the procedure below.
A. Test Pool 7: Baquacil CDX +Didecyl dimethyl ammonium chloride (DDAC) • 1. […]
Observations were taken on a business daily basis and the pool was scored using the following 0-4 scale. • 0=no trace of algae • 1=trace amounts • 2=small patches • 3=large patches • 4=sides and bottom more than 25% covered by algae

[2] = tested on: wild mustard algae (Miami strain)
Experimental: (§1) Efficacy of zinc ions (in the form of zinc sulfate) was evaluated using two strains of very difficult to control wild mustard algae, both isolated from a pool treated with BAQUACIL (Arch Chemicals, Norwalk, CT). All experiments were conducted in 125 ml Erlenmeyer flasks that contained 50 ml of Jaworski's medium. To increase the surface area in the flasks each flask also contained 50 6 mm glass beads. The tests flasks were illuminated using a combination incandescent and fluorescent plant grow lights with 16 hours of illumination and 8 hours of darkness. Temperature was maintained at 80° F+/−5° F. The flasks were grown without agitation or additional aeration. One ml of a pooled mid-log culture was used to used to inoculate the test flasks to an initial optical density of 95%T. This yields an initial concentration of approximately […] algae per ml. Efficacy was evaluated in the presence and absence of a sub-optimal concentration of a primary sanitizer (PHMB). Growth was measured optically at 450 nm using a 1 inch cell in a Spectronic 20. All experiments used five replicates. The results of the optical readings were arithmetically averaged. […] In FIGS. 1 and 2, PHMB concentrations were held at 4 PPM, and zinc ion concentration was varied from 0 to 3 PPM. Growth over time was measured and plotted.

[3] = tested on: wild mustard algae (Schwab strain)
Experimental: as §1

[4] = 2 or 3 ppm zinc ions, PHMB 4 PPM

O=S(=O)([O-])[O-].[Zn+2] [zinc sulfate]
algaestatic performance (visual algae score 0-4) ([1]; Test Pool 7: Baquacil CDX + DDAC, single 4.2 ppm dosage of zinc sulfate (1.5 PPM zinc) after 102 days): improved algaestatic performance
algaestatic performance (visual algae score 0-4) ([1]; Test Pool 8: Baquacil CDX control, 4.2 ppm dosages of zinc sulfate (1.5 PPM zinc) after 33, 40 and 61 days): improved algaestatic performance
reduction of algal growth [2, 4]: approximately 50%
algaestatic activity ([2]; FIG. 2, PHMB held at 4 PPM, zinc ion 0 to 3 PPM, growth measured optically at 450 nm): moderate algaestatic activity
reduction of algal growth [3, 4]: approximately 50%
algaestatic activity ([3]; FIG. 1, PHMB held at 4 PPM, zinc ion 0 to 3 PPM, growth measured optically at 450 nm): moderate algaestatic activity
